Source: patent publication US20210315869A1, “COMPOUNDS AND METHODS FOR CSK MODULATION AND INDICATIONS THEREFOR” (Plexxikon Inc., priority 2020, published 2021)

What was measured:
CSK = target: T1, CSK (Homo sapiens, UniProt P41240); assay: Human CSK enzymatic assay (AlphaScreen, Poly (Glu4-Tyr) substrate); type: biochemical; conditions: 100 uM ATP; read-out: CSK IC50 (μM) COFACTOR: 100 uM ATP
T1 construct: purchased Thermo Fisher
Method: This assay measures the ability of CSK to phosphorylate a biotinylated peptide containing multiple tyrosine residues in vitro. The CSK enzyme was purchased from Thermo Fisher. The biotinylated Poly (Glu4-Tyr) peptide substrate was purchased from Sigma-Aldrich. The CSK enzyme assay was performed using 0.75 ng CSK enzyme and 30 nM Poly (Glu4-Tyr) substrate in the presence of 25 mM Hepes pH 7.5, 5 mM Mg Acetate, 0.1% NP-40, 1 mM DTT, 0.01% BSA, and 100 μM ATP. A 19 μL volume of the above reaction mixture was added to wells of 384-well AlphaPlate (PerkinElmer GA, USA) containing 1 μL of various concentrations of test compound or DMSO vehicle and incubated for 60 minutes at room temperature. 16 wells containing all the components of reaction mixture and 5% DMSO serve as high control. 16 wells containing all the components except ATP of reaction mixture and 5% DMSO served as low control. The enzymatic reaction was stopped by the addition of 5 μL stop/detection mixture containing 25 mM Hepes pH 7.5 100 mM EDTA, and 5 μg/mL streptavidin-coated AlphaScreen donor beads (PerkinElmer GA, USA) and incubated for 20 minutes. A 5 μL mixture containing 25 mM Hepes pH 7.5, 100 mM EDTA, and 5 μg/mL anti-phosphotyrosine antibody PY20-coated AlphaScreen acceptor beads (PerkinElmer GA, USA) was added and the plate was incubated for 1 hour at room temperature. The streptavidin donor beads bind to the biotin moiety on the biotinylated Poly (Glu4-Tyr) substrate and the PY20 antibody-coated acceptor beads bind to tyrosine residues on the substrate that have been directly phosphorylated by CSK. Upon excitation of these beads with laser light at 680 nm, singlet oxygen was produced. This singlet oxygen was rapidly quenched, unless the AlphaScreen PY20 acceptor beads are in close proximity, in which case a proximity signal can be measured at 580 nm. In the presence of catalytic activity, there was a very strong proximity signal. Selective CSK inhibitors affect a decrease in this proximity signal through a decrease in phosphorylation of the Poly (Glu4-Tyr) substrate. The percentage of inhibition at individual concentrations relative to high and low controls was calculated. The data were analyzed by using nonlinear regression to generate IC50 values. Human LCK enzymatic assay

LCK = target: T2, LCK (Homo sapiens, UniProt P06239); assay: Human LCK enzymatic assay (AlphaScreen, Poly (Glu4-Tyr) substrate); type: biochemical; conditions: 100 uM ATP; read-out: LCK IC50 (uM) COFACTOR: 100 uM ATP
T2 construct: purchased ProQinase
Method: This assay measures the ability of LCK to phosphorylate a biotinylated peptide containing multiple tyrosine residues in vitro. The LCK enzyme was purchased from ProQinase. The biotinylated Poly (Glu4-Tyr) peptide substrate was purchased from Sigma-Aldrich. The LCK enzyme assay was performed using 1 ng LCK enzyme and 30 nM Poly (Glu4-Tyr) substrate in the presence of 25 mM Hepes pH 7.5, 10 mM MnCl2, 50 mM NaCl, 0.01% Tween-20, 0.5 mM DTT, 0.01% BSA, and 100 μM ATP. A 19 μL volume of the above reaction mixture was added to wells of 384-well AlphaPlate (PerkinElmer GA, USA) containing 1 μL of various concentrations of test compound or DMSO vehicle and incubated for 40 minutes at 25° C. 16 wells containing all the components of reaction mixture and 5% DMSO served as high control. 16 wells containing all the components except ATP of reaction mixture and 5% DMSO served as low control. The enzymatic reaction was stopped by the addition of 5 μL stop/detection mixture containing 25 mM Hepes pH 7.5 100 mM EDTA, and 10 μg/mL streptavidin-coated AlphaScreen donor beads (PerkinElmer GA, USA) and incubated for 20 minutes. A 5 μL mixture containing 25 mM Hepes pH 7.5, 100 mM EDTA, and 10 μg/mL anti-phosphotyrosine antibody PY20-coated AlphaScreen acceptor beads (PerkinElmer GA, USA) was added and the plate was incubated for 1 hour at room temperature. The streptavidin donor beads bind to the biotin moiety on the biotinylated Poly (Glu4-Tyr) substrate and the PY20 antibody-coated acceptor beads bind to tyrosine residues on the substrate that have been directly phosphorylated by LCK. Upon excitation of these beads with laser light at 680 nm, singlet oxygen was produced. This singlet oxygen was rapidly quenched, unless the AlphaScreen PY20 acceptor beads are in close proximity, in which case a proximity signal can be measured at 580 nm. In the presence of catalytic activity, there was a very strong proximity signal. Selective LCK inhibitors affect a decrease in this proximity signal through a decrease in phosphorylation of the Poly (Glu4-Tyr) substrate. The percentage of inhibition at individual concentrations relative to high and low controls was calculated. The data were analyzed by using nonlinear regression to generate IC50 values.

Jurkat/NFAT-RE cells = assay: NFAT reporter assay (luciferase) in Jurkat/NFAT-RE cells; type: cell-based; conditions: Homo sapiens, 0.02 μg/mL anti-CD3 antibody OKT3, 3 hours, read-out: Jurkat EC50 (uM) Cell Assay: Reporter Cell Variant: NFAT response element
From the text: To assess the ability of CSK inhibitors to activate LCK and stimulate signaling downstream of the T-cell receptor, an NFAT reporter assay was used for monitoring of LCK activation in cells through the activation of LCK-dependent signaling through a reporter assay. The Jurkat T-cell cell line was genetically engineered to express a luciferase reporter that is regulated by the NFAT-response element. (Clipstone, N. A., & Crabtree, G. R., Identification of calcineurin as a key signalling enzyme in T-lymphocyte activation, Nature, 357(6380), 695-697, 1992). Stimulation of the T-cell receptor with anti-CD3 antibody increases the expression of the luciferase reporter. To test the ability of CSK inhibitors to stimulate LCK and downstream T-cell signaling, the cells were stimulated with a suboptimal concentration of anti-CD3 ligand, to measure the ability of CSK inhibitors to increase luciferase expression.
This assay measures the signaling activity downstream of the T-cell receptor, specifically the ability of the NFAT transcription factor to be translocated to the nucleus and induce expression of a firefly luciferase gene. Jurkat/NFAT-RE cells stably expressing the NFAT reporter construct were purchased from BPS Bioscience. The assay was performed by plating 40,000 Jurkat/NFAT-RE cells in a 50 μL volume of serum-free growth media in a 96-well plate. Following an overnight incubation, the cells were treated with CSK inhibitors and 0.02 μg/mL anti-CD3 antibody OKT3 (BD Bioscience) for 3 hours at 37° C. High control wells were stimulated with DMSO and 5 μg/mL OKT3 to maximally stimulate the NFAT reporter, and low control wells were stimulated with DMSO and 0.02 μg/mL OKT3. Following the 3 hour incubation, the cells were assayed for viability using CellTiter-Fluor™ (Promega), and for luciferase expression using ONE-Glo™ (Promega). The ONE-Glo™ signal was normalized to the CellTiter-Fluor™ signal, and the percentage of NFAT activation relative to high and low controls was calculated. The data were analyzed by using nonlinear regression to generate EC50 values. Selective CSK inhibitors affect an increase in luciferase expression in the presence of low level stimulation of the T-cell receptor.

T1 sequence (P41240 whole entry): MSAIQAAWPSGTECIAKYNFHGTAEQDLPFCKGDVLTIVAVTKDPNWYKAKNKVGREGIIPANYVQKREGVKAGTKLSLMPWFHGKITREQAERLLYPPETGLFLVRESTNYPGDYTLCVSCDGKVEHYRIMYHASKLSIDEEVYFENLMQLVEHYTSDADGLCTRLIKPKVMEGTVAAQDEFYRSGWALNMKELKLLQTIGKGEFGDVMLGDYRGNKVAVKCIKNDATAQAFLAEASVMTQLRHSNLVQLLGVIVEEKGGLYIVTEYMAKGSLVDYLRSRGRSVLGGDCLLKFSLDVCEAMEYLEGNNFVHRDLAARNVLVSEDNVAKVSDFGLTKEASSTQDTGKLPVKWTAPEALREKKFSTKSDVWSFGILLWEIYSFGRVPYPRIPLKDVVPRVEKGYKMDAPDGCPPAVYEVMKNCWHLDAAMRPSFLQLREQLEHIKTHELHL
T2 sequence (P06239 whole entry): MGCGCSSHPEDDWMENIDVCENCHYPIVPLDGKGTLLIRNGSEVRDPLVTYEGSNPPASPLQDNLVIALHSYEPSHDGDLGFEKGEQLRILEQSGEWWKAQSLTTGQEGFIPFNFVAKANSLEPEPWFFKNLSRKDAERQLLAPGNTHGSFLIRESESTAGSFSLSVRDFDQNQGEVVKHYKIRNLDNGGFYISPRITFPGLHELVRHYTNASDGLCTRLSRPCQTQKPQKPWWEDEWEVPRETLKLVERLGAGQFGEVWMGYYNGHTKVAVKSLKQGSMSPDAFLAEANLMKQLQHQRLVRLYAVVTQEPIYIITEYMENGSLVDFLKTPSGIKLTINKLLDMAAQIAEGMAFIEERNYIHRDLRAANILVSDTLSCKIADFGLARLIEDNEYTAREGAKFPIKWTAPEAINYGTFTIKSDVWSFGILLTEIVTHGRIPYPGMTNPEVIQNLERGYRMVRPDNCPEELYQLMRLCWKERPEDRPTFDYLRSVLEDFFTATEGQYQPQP

`O=c1c(-c2c(F)ccc(NS(=O)(=O)c3cc4scnc4cc3F)c2F)cc2cnc(Nc3ccn(C(F)F)n3)cc2n1C1CC1` [P-0012, N-(3-(1-cyclopropyl-7-((1-(difluoromethyl)-1H-pyrazol-3-yl)amino)-2-oxo-1,2-dihydro-1,6-naphthyndin-3-yl)-2,4-difluorophenyl)-5-fluorobenzo[d]thiazole-6-sulfonamide] showed an IC50 (CSK) of 0.001 to 0.5 µM, an IC50 (LCK) of 0.5 to 5 µM and an EC50 (Jurkat/NFAT-RE cells) of 0.001 to 0.5 µM.
`O=c1c(-c2c(F)ccc(NS(=O)(=O)c3cc4scnc4cc3F)c2F)cc2cnc(Nc3ccn(C(F)F)n3)cc2n1C1CC(F)(F)C1` [P-0013, N-(3-(1-(3,3-difluorocyclobutyl)-7-((1-(difluoromethyl)-1H-pyrazol-3-yl)amino)-2-oxo-1,2-dihydro-1,6-naphthyridin-3-yl)-2,4-difluorophenyl)-5-fluorobenzo[d]thiazole-6-sulfonamide] showed an IC50 (CSK) of 0.001 to 0.5 µM, an IC50 (LCK) of 0.5 to 5 µM and an EC50 (Jurkat/NFAT-RE cells) of 0.001 to 0.5 µM.
Work on `O=c1c(-c2c(F)ccc(NS(=O)(=O)c3cc4scnc4cc3F)c2F)cc2cnc(NCCO)cc2n1C1CC1` [P-0014, N-(3-(1-cyclopropyl-7-((2-hydroxyethyl)amino)-2-oxo-1,2-dihydro-1,6-naphthyridin-3-yl)-2,4-difluorophenyl)-5-fluorobenzo[d]thiazole-6-sulfonamide] yielded an IC50 (CSK) of 0.001 to 0.5 µM, an IC50 (LCK) of 5 to 100 µM and an EC50 (Jurkat/NFAT-RE cells) of 0.5 to 5 µM.
`O=c1c(-c2c(F)ccc(NS(=O)(=O)c3cc4scnc4cc3F)c2F)cc2cnc(NCCO)cc2n1C1CC(F)(F)C1` [P-0015, N-(3-(1-(3,3-difluorocyclobutyl)-7-((2-hydroxyethyl)amino)-2-oxo-1,2-dihydro-1,6-naphthyridin-3-yl)-2,4-difluorophenyl)-5-fluorobenzo[d]thiazole-6-sulfonamide] gave an IC50 (CSK) of 0.5 to 5 µM, an IC50 (LCK) of 5 to 100 µM and an EC50 (Jurkat/NFAT-RE cells) of 0.5 to 5 µM.
Work on `CC(F)(F)Cn1c(=O)c(-c2c(F)ccc(NS(=O)(=O)c3cc4scnc4cc3F)c2F)cc2cnc(N)cc21` [P-0016, N-(3-(7-amino-1-(2,2-difluoropropyl)-2-oxo-1,2-dihydro-1,6-naphthyridin-3-yl)-2,4-difluorophenyl)-5-fluorobenzo[d]thiazole-6-sulfonamide] yielded an IC50 (CSK) of 0.001 to 0.5 µM, an IC50 (LCK) of 5 to 100 µM and an EC50 (Jurkat/NFAT-RE cells) of 0.001 to 0.5 µM.
Compound `Nc1cc2c(cn1)cc(-c1c(F)ccc(NS(=O)(=O)c3cc4scnc4cc3F)c1F)c(=O)n2CC(F)(F)C1CC1` [P-0017, N-(3-(7-amino-1-(2-cyclopropyl-2,2-difluoroethyl)-2-oxo-1,2-dihydro-1,6-naphthyridin-3-yl)-2,4-difluorophenyl)-5-fluorobenzo[d]thiazole-6-sulfonnamide] has an IC50 (CSK) of 0.001 to 0.5 µM, an IC50 (LCK) of 5 to 100 µM and an EC50 (Jurkat/NFAT-RE cells) of 0.001 to 0.5 µM.
For `Nc1cc2c(cn1)cc(-c1c(F)ccc(NS(=O)(=O)c3cc4scnc4cc3F)c1F)c(=O)n2CC1CC(F)(F)C1` [P-0018, N-(3-(7-amino-1-((3,3-difluorocyclobutyl)methyl)-2-oxo-1,2-dihydro-1,6-naphthyridin-3-yl)-2,4-difluorophenyl)-5-fluorobenzo[d]thiazole-6-sulfonamide], the IC50 (CSK) was 0.001 to 0.5 µM, the IC50 (LCK) was 5 to 100 µM and the EC50 (Jurkat/NFAT-RE cells) was 0.001 to 0.5 µM.
With `Nc1cc2c(cn1)cc(-c1c(F)ccc(NS(=O)(=O)c3ccc4ncsc4c3F)c1F)c(=O)n2CC(F)F` [P-0019, N-(3-(7-amino-1-(2,2-difluoroethyl)-2-oxo-1,2-dihydro-1,6-naphthyridin-3-yl)-2,4-difluorophenyl)-7-fluorobenzo[d]thiazole-6-sulfonamide] the IC50 (CSK) was 0.001 to 0.5 µM, the IC50 (LCK) was 0.5 to 5 µM and the EC50 (Jurkat/NFAT-RE cells) was 0.001 to 0.5 µM.
Work on `CC(F)(F)Cn1c(=O)c(-c2c(F)ccc(NS(=O)(=O)c3ccc4ncsc4c3F)c2F)cc2cnc(N)cc21` [P-0020, N-(3-(7-amino-1-(2,2-difluoropropyl)-2-oxo-1,2-dihydro-1,6-naphthyridin-3-yl)-2,4-difluorophenyl)-7-fluorobenzo[d]thiazole-6-sulfonamide] yielded an IC50 (CSK) of 0.001 to 0.5 µM, an IC50 (LCK) of 0.5 to 5 µM and an EC50 (Jurkat/NFAT-RE cells) of 0.001 to 0.5 µM.
For `Nc1cc2c(cn1)cc(-c1c(F)ccc(NS(=O)(=O)c3cc4scnc4cc3F)c1F)c(=O)n2CC(F)(F)F` [P-0021, N-(3-(7-amino-2-oxo-1-(2,2,2-trifluoroethyl)-1,2-dihydro-1,6-naphthyridin-3-yl)-2,4-difluorophenyl)-5-fluorobenzo[d]thiazole-6-sulfonamide], the IC50 (CSK) was 0.001 to 0.5 µM, the IC50 (LCK) was 0.5 to 5 µM and the EC50 (Jurkat/NFAT-RE cells) was 0.001 to 0.5 µM.
With `Nc1cc2c(cn1)cc(-c1c(F)ccc(NS(=O)(=O)c3ccc4ncsc4c3F)c1F)c(=O)n2CC(F)(F)F` [P-0022, N-(3-(7-amino-2-oxo-1-(2,2,2-trifluoroethyl)-1,2-dihydro-1,6-naphthyridin-3-yl)-2,4-difluorophenyl)-7-fluorobenzo[d]thiazole-6-sulfonamide] the IC50 (CSK) was 0.001 to 0.5 µM, the IC50 (LCK) was 0.5 to 5 µM and the EC50 (Jurkat/NFAT-RE cells) was 0.001 to 0.5 µM.
Compound `Nc1cc2c(cn1)cc(-c1c(F)ccc(NS(=O)(=O)c3ccc4ncsc4c3)c1F)c(=O)n2CC(F)F` [P-0023, N-(3-(7-amino-1-(2,2-difluoroethyl)-2-oxo-1,2-dihydro-1,6-naphthyridin-3-yl)-2,4-difluorophenyl)benzo[d]thiazole-6-sulfonamide] has an IC50 (CSK) of 0.001 to 0.5 µM, an IC50 (LCK) of 0.5 to 5 µM and an EC50 (Jurkat/NFAT-RE cells) of 0.001 to 0.5 µM.
For `Nc1cc2c(cn1)cc(-c1c(F)ccc(NS(=O)(=O)c3cc4scnc4cc3F)c1F)c(=O)n2C1CCC1` [P-0024, N-(3-(7-amino-1-cyclobutyl-2-oxo-1,2-dihydro-1,6-naphthyridin-3-yl)-2,4-difluorophenyl)-5-fluorobenzo[d]thiazole-6-sulfonamide], the IC50 (CSK) was 0.001 to 0.5 µM, the IC50 (LCK) was 5 to 100 µM and the EC50 (Jurkat/NFAT-RE cells) was 0.001 to 0.5 µM.
